Data reported in patent US11964967B2, “Cardiac sarcomere inhibitors” (Cytokinetics, Inc., priority 2018, dated 2024).

Biological target: T1, bovine cardiac myofibrils (Bos taurus, UniProt Q9BE39)
T1 construct: full-length cardiac myosin in the context of the native sarcomere; from tissue; host or cells: bovine cardiac left ventricular tissue, homogenized with detergent (triton X-100)
Assay: Skinned bovine cardiac myofibril ATPase assay (PK/LDH-coupled)
Type: biochemical
Conditions: inhibition of steady-state ATPase activity of bovine cardiac myofibrils, calcium at 75% activation (pCa75), PM12 buffer pH 6.8; for IC50: read-out: CDMF75 IC50
Protocol: To evaluate the effect of compounds on the ATPase activity of full-length cardiac myosin in the context of the native sarcomere, skinned myofibril assays were performed. Bovine cardiac myofibrils were obtained by homogenizing bovine cardiac left ventricular tissue in the presence of a detergent such as triton X-100. Such treatment removes membranes and a majority of the soluble cytoplasmic proteins but leaves intact the cardiac sarcomeric acto-myosin apparatus. Myofibril preparations retain the ability to hydrolyze ATP in an Ca^2+ regulated manner ATPase activities of such myofibril preparations in the presence and absence of compounds were assayed at Ca^2+ concentrations activating to a defined fraction of the maximal rate (i.e., 25%, 75%). Small molecule agents were assessed for their ability to inhibit the steady-state ATPase activity of bovine cardiac myofibrils using pyruvate kinase and lactate dehydrogenase (PK/LDH)-coupled enzyme system. This assay regenerates myosin-produced ADP into ATP by oxidizing NADH, producing an absorbance change at 340 nm. Prior to testing small molecule agents, the bovine cardiac myofibrils were assessed for their calcium responsiveness and the calcium concentration that achieves either a 50% (pCa50) or 75% (pCa75) activation of the myofibril system was chosen as the final condition for assessing the inhibitory activity of the small molecule agents. All enzymatic activity was measured in a buffered solution containing 12 mM PIPES (piperazine-N,N′-bis(2-ethanesulfonic acid), 2 mM magnesium chloride at pH 6.8 (PM 12 buffer). Final assay conditions were 1 mg/mL of bovine cardiac myofibrils, 4 U/mL pyruvate kinase, 6 U/mL lactate dehydrogenase, 50 μM ATP, 0.1 mg/mL BSA (bovine serum albumin), 10 ppm antifoam, 1 mM DTT, 0.5 mM NADH, 1.5 mM PEP, 0.6 mM EGTA, and an amount of CaCl2) sufficient to achieve either 50% or 75% activation of the myofibril ATPase activity. Results for compounds tested are provided in Table A. Compounds tested were prepared in accordance with the synthetic procedures described herein.

T1 sequence (Q9BE39 whole entry): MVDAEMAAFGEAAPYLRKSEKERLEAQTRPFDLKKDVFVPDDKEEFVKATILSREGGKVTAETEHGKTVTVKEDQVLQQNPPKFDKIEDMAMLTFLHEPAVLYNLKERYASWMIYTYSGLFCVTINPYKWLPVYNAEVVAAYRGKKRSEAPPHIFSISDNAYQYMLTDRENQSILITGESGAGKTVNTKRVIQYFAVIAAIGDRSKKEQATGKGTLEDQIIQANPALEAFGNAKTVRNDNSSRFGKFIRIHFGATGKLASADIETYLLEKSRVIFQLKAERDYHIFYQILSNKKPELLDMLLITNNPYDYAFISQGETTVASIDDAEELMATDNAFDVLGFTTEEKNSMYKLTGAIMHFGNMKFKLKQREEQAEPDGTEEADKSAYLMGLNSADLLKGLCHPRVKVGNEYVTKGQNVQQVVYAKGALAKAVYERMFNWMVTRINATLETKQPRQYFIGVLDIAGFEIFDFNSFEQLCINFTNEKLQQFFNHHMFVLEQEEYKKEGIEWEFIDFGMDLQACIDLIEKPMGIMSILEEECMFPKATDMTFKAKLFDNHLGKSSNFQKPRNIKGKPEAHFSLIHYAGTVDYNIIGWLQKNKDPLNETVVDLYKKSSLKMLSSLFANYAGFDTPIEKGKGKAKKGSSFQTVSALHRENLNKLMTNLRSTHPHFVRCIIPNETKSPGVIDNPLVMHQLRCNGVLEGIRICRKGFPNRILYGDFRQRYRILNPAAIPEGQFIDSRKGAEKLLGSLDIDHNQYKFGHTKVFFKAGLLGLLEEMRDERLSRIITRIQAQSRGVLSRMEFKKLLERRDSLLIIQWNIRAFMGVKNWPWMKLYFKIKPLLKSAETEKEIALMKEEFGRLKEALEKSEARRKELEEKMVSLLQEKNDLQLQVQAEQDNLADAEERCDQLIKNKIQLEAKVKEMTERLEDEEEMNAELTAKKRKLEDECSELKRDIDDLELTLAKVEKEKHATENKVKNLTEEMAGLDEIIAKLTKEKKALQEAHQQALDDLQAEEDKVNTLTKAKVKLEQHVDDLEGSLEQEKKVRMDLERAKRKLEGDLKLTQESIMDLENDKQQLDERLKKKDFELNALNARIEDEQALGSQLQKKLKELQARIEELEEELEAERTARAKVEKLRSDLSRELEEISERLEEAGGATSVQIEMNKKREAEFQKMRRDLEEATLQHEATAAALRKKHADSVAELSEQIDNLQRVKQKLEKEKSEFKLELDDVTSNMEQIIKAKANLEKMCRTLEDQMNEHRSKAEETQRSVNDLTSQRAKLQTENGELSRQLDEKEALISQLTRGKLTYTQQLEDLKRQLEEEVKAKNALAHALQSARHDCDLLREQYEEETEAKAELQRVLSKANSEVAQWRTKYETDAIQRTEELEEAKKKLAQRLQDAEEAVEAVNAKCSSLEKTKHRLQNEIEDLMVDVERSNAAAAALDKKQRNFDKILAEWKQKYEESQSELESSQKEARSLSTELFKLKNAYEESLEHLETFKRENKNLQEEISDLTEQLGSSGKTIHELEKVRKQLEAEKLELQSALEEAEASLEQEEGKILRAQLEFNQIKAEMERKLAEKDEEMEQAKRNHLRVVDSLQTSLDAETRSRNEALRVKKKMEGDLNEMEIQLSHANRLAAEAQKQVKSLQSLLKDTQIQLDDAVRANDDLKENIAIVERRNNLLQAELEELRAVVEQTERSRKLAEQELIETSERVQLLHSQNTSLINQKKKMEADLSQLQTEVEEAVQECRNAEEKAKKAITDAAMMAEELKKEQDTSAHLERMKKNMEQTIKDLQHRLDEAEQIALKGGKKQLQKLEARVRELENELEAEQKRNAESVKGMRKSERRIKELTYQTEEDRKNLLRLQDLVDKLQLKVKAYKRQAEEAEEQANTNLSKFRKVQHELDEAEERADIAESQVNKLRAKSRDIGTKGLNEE
T1 sequence (P85100 whole entry partner): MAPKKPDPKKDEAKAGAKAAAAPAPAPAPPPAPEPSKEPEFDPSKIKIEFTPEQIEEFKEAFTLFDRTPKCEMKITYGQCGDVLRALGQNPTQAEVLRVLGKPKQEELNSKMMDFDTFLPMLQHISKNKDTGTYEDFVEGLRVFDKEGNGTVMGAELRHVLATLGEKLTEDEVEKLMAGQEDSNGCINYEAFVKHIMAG
T1 sequence (Q3SZE5 whole entry partner): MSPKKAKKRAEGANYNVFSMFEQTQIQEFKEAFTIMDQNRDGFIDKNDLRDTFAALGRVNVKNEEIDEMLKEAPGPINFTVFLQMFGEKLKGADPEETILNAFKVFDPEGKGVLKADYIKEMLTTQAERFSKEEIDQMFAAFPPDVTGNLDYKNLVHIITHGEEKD

Structure (SMILES) | CDMF75 IC15 | IC50
CCc1nc(-c2ccc3c(c2)CCC3C(=O)Nc2ccnc(C)c2)no1 (single isomer, unassigned) [Compound 2B] | 17.5 µM | > 39.2 µM
CCc1nc(-c2ccc3c(c2)CCC3C(=O)Nc2ccnn2C)no1 (single isomer, unassigned) [Compound 5A] | >39.2 µM | > 39.2 µM
CCc1nc(-c2ccc3c(c2)CCC3C(=O)Nc2ccnn2C)no1 (single isomer, unassigned) [Compound 5B] |  | > 39.2 µM
CCc1nc(-c2ccc3c(c2)CCC3C(=O)Nc2ccccc2)no1 (single isomer, unassigned) [Compound 8B] | >39.2 µM | > 39.2 µM
CCNC(=O)C1CCc2cc(-c3noc(CC)n3)ccc21 (single isomer, unassigned) [Compound 11A] | >39.2 µM | > 39.2 µM
CCNC(=O)C1CCc2cc(-c3noc(CC)n3)ccc21 (single isomer, unassigned) [Compound 11B] | 26.3 µM | > 39.2 µM
Cc1cc(NC(=O)C2CCc3cc(-c4noc(C(F)F)n4)ccc32)ccn1 (single isomer, unassigned) [Compound 14B] | >39.2 µM | > 39.2 µM
Cc1cc(NC(=O)C2CCc3cc(-c4noc(C)n4)ccc32)ccn1 (single isomer, unassigned) [Compound 17A] | 2.9 µM | 13.6 µM
Cc1cc(NC(=O)C2CCc3cc(-c4noc(C)n4)ccc32)ccn1 (single isomer, unassigned) [Compound 17B] | >39.2 µM | > 39.2 µM
Cc1cc(NC(=O)C2CCc3cc(-c4noc(C5CC5)n4)ccc32)ccn1 (single isomer, unassigned) [Compound 20B] | 33.2 µM | > 39.2 µM
Cc1cc(NC(=O)C2CCc3cc(-c4noc(C(C)C)n4)ccc32)ccn1 (single isomer, unassigned) [Compound 23A] | 3.6 µM | 14.6 µM
Cc1cc(NC(=O)C2CCc3cc(-c4noc(C(C)C)n4)ccc32)ccn1 (single isomer, unassigned) [Compound 23B] | >39.2 µM | > 39.2 µM
CCc1nc(-c2ccc3c(c2)CCC32COC(=O)N2)no1 (single isomer, unassigned) [Compound 26A] | 31.0 µM | > 39.2 µM
Cc1nc(-c2ccc3c(c2)CCC32COC(=O)N2)no1 (single isomer, unassigned) [Compound 29A] | >39.2 µM | > 39.2 µM
CC(C)c1nc(-c2ccc3c(c2)CCC32COC(=O)N2)no1 (single isomer, unassigned) [Compound 32B] | >39.2 µM | > 39.2 µM

Now those with a lower IC50, led by results:

CDMF75 IC15 | IC50 | Structure (SMILES)
2.2 µM | 11 µM | Cc1cc(NC(=O)C2CCc3cc(-c4noc(C(F)F)n4)ccc32)ccn1 (single isomer, unassigned) [Compound 14A]
2.1 µM | 9.1 µM | Cc1nc(-c2ccc3c(c2)CCC32COC(=O)N2)no1 (single isomer, unassigned) [Compound 29B]
1.5 µM | 6.3 µM | CC(C)c1nc(-c2ccc3c(c2)CCC32COC(=O)N2)no1 (single isomer, unassigned) [Compound 32A]
1.2 µM | 5.6 µM | Cc1cc(NC(=O)C2CCc3cc(-c4noc(C5CC5)n4)ccc32)ccn1 (single isomer, unassigned) [Compound 20A]
0.7 µM | 3 µM | CCc1nc(-c2ccc3c(c2)CCC3C(=O)Nc2ccnc(C)c2)no1 (single isomer, unassigned) [Compound 2A]
0.7 µM | 2.8 µM | CCc1nc(-c2ccc3c(c2)CCC3C(=O)Nc2ccccc2)no1 (single isomer, unassigned) [Compound 8A]
0.3 µM | 1.6 µM | CCc1nc(-c2ccc3c(c2)CCC32COC(=O)N2)no1 (single isomer, unassigned) [Compound 26B]
